Experimental data as given in US11198850B2, “Method for manufacturing telencephalon or progenitor tissue thereof” (RIKEN, priority 2013, dated 2021).

Test system: hESC-derived hippocampal neurons
Assay: Whole cell patch clamp of hippocampal neurons from dispersion culture of hESC-derived hippocampal tissue (sEPSC)
Assay type: cell-based, human
Details: DNQX 10 μM; voltage held at −60 mV; day 53 after dispersion
Procedure: By a method similar to that in Example 7-1, continuous hippocampal tissues were subjected to dispersion culture. In this experiment, flat plane culture was performed by seeding on a glass or plastic dish, slide and the like. For culture, a glass or plastic surface was coated with poly-D-Lysine (100 μg/ml) at 37° C. for 3 hr, and Laminin 20 μg/ml/Fibronectin 8 μg/ml overnight at 37° C.
The culture medium used for day 1-2 of dispersion was Neurobasal medium (Gibco/Invitrogen) added with 2% B27 supplement without vitamin A (Gibco/Invitrogen), 2 mM L-glutamine, 1% FBS, 20 ng/ml BDNF, 20 ng/ml NT-3, and 10 μM Y-27632. From day 3 of culture, Neurobasal medium (Gibco/Invitrogen) added with 2% B27 supplement without vitamin A (Gibco/Invitrogen), 2 mM L-glutamine, 10% FBS, BDNF 20 ng/ml, and NT-3 20 ng/ml was used and a half amount of the medium was exchanged every three days. […] Also, the cells obtained by dispersion culture by the same method were electrophysiologically analyzed by the Patch clamp technique. […] For sEPSC, time-course electric current was measured when the voltage was maintained at −60 mV, and the medicament used was DNQX (sigma, D0540) at a final concentration of 10 μM. As the action potential, the membrane potential upon […] stimulation was measured.

O=[N+]([O-])c1cc2nc(O)c(O)nc2cc1[N+](=O)[O-] [DNQX]
spontaneous excitatory postsynaptic current (sEPSC): inhibited
